What is called kinetic solubility is solubility judged after dilution from a stock solution rather than from solid.

The structures appear in SMILES notation. Values after ≈ are worked out from the molar mass of the structure shown.

The conditions of the data set: buffer; pH 7.4; 200.0 µM.
In turn, `OCCNCC(O)CN1c2ccccc2Sc2ccccc21` (stereo not drawn) gave a kinetic solubility of over 47.5 µg/mL.
For `CCOC(=O)c1[nH]cnc1C(=O)Nc1cccc(OC)c1` the value was 4.4 µg/mL (≈ 15.2 µM); for `CC(=O)N1CCN(c2ccnc3cc(Cl)ccc23)CC1`, 34.3 µg/mL (≈ 118 µM); for `Cc1cccc(-c2noc(CCCC(=O)NC3CCCCC3)n2)c1`, 4.5 µg/mL (≈ 13.7 µM).
Compound `COc1ccc(N(C=O)C(C(=O)Nc2c(C)cccc2C)c2ccccc2)cc1` (stereo not drawn) displayed a kinetic solubility of 1.6 µg/mL (≈ 4.12 µM). Compared with the last compound, the solubility kinetic is about 2.8-fold lower.
With `COC(=O)c1cccc(NC(=O)C(C)(C)C)c1` the figure was over 35.3 µg/mL.
The compound `Cc1cccc(C)c1NC(=O)C(C)N1CCCCC1` (stereo not drawn) came in with a kinetic solubility of 38.3 µg/mL (≈ 147 µM).
For `CCCc1ccc(-c2ccc(-c3noc(-c4ccncc4)n3)cc2)nc1` the value was under 0.2 µg/mL; for `Nc1c(C(=O)C2CC2)sc2nc3c(cc12)CCC3`, 2.2 µg/mL (≈ 8.52 µM); for `COc1ccc(CNC(=O)C2CCN(C(=O)c3ccccc3)CC2)cc1`, over 52.9 µg/mL.
With `CC1CCCCC1NC(=O)c1ccc2c(c1)OCCO2` (stereo not drawn) the figure was over 41.3 µg/mL; with `COC(=O)CCC(=O)Nc1ccc2oc3c(c2c1)CCCC3`, 43.5 µg/mL (≈ 144 µM).
With `O=C(CSc1nccc(=O)[nH]1)Nc1cccc2ccccc12` the figure was over 46.7 µg/mL.
With `Cc1ccc(NC(=O)Cn2c([N+](=O)[O-])cnc2C)cc1Cl`, the kinetic solubility turned out to be 1.6 µg/mL (≈ 5.18 µM).
In turn, `Cn1c(SCC(=O)NCc2ccco2)nnc1C1CC1` showed a kinetic solubility of over 43.9 µg/mL.
For `O=c1[nH]c(/C=C/c2ccc3c(c2)OCO3)c([N+](=O)[O-])c(=O)[nH]1` the value was 19.4 µg/mL (≈ 64 µM); for `O=C(CC(=O)Nc1cccnc1)Nc1cccnc1`, over 38.4 µg/mL; for `CCOC(=O)CN1C(=O)S/C(=C/c2ccco2)C1=O`, 21.2 µg/mL (≈ 75.4 µM).
`CCNC(=O)COC(=O)c1cccc(Br)c1` returned a kinetic solubility of 40.8 µg/mL (≈ 143 µM).
On to `O=C(CSc1nccc(=O)[nH]1)N1CCOCC1`, for which the solubility (kinetic) was over 38.3 µg/mL.
`COCCNC(=O)C(NC(=O)C1CCCCC1)C(C)C` (stereo not drawn) showed a solubility (kinetic) of over 42.7 µg/mL.
`OC(c1nc2ccc(F)cc2[nH]1)C(O)c1nc2ccc(F)cc2[nH]1` (stereo not drawn) yielded a solubility (kinetic) of over 49.5 µg/mL.
In turn, `CCOC(=O)c1cccc(NC(=O)c2cc3ccccc3o2)c1` came in with a kinetic solubility of 0.7 µg/mL (≈ 2.26 µM).
For `Cc1nc2ccccc2n1Cc1ccccc1Br` the value was 26 µg/mL (≈ 86.3 µM).
`COc1ccc(NC(=S)N2CCN(c3ccccc3)CC2)c(OC)c1` returned a kinetic solubility of 2.6 µg/mL (≈ 7.27 µM).
With `CCOC(=O)c1cnc(-c2ccccc2)nc1Oc1ccc(OC)cc1` the figure was under 0.4 µg/mL; with `Cc1ccc(NC(=O)NC(=O)COc2c(F)c(F)cc(F)c2F)c(C)c1`, 20.5 µg/mL (≈ 55.4 µM); with `CCON1C(=O)C(C)(C)N(OCC)C(=O)C1(C)C`, over 38.7 µg/mL.
For `O=C(Nc1ccc2c(c1)OCCO2)c1cc(F)c(F)cc1Cl` the value was 2.8 µg/mL (≈ 8.6 µM); for `O=C(Cc1c[nH]c2ccccc12)N1CCN(c2ccccc2)CC1`, 3.9 µg/mL (≈ 12.2 µM); for `C/C(=C\c1ccccc1)C(=O)N1CCN(Cc2ccc3c(c2)OCO3)CC1`, 51.8 µg/mL (≈ 142 µM).
`COc1ccc(NC(=O)Cc2ccsc2)c(OC)c1` gave a solubility (kinetic) of over 41.6 µg/mL.
With `CC(C)Oc1cccc(NC(=O)c2cnccc2C(F)(F)F)c1` the figure was 43.9 µg/mL (≈ 135 µM); with `Cn1c2ccccc2c2nnc(SCCN3CCOCC3)nc21`, over 49.4 µg/mL.
`O=C(CSc1nnc(Nc2ccccc2F)s1)NCC1CCCO1` (stereo not drawn) returned a solubility (kinetic) of over 55.3 µg/mL.
For `Cc1ccc2nc(C)cc(C(=O)NC3CCCCCC3)c2c1` the value was 3.6 µg/mL (≈ 12.1 µM); for `COc1ccc(CC(=O)OCC(=O)NC2CCCC(C)C2C)cc1` (stereo not drawn), over 50 µg/mL.
With `Cc1ccc(F)cc1NC(=O)CN1CCN(c2ccccn2)CC1` the figure was over 49.3 µg/mL.
For `O=C(CSC(=S)N1CCCC1)Nc1cc2c(cc1Br)OCCO2` the value was under 0.4 µg/mL; for `CN(C)S(=O)(=O)c1ccc(C(=O)OCC(=O)NC(=O)NC2CCCC2)cc1`, 7.9 µg/mL (≈ 19.9 µM); for `Cc1ccc(Nc2nc(-c3ccccc3)c(CC(=O)O)s2)cc1`, over 48.7 µg/mL.
Compound `CC(=O)Nc1ccc(C(=O)Nc2ccncc2)cc1` showed a solubility (kinetic) of 31.6 µg/mL (≈ 124 µM).
In turn, `O=C(Nc1ccccc1)c1ccc(-c2ccc([N+](=O)[O-])cc2)o1` had a kinetic solubility of 7.4 µg/mL (≈ 24 µM).
For `N/C(=N\OC(=O)c1cccc2ccccc12)c1ccncc1` the value was 31.3 µg/mL (≈ 107 µM); for `Cc1ccc(Nc2nc(N)c([N+](=O)[O-])c(NCCO)n2)cc1C`, 2.1 µg/mL (≈ 6.6 µM); for `Cc1ccc(NC(=O)COCC(=O)Nc2ccc(C)cc2)cc1`, 3.1 µg/mL (≈ 9.92 µM).
For `Cc1ccc(OC(C)C(=O)OCC(=O)Nc2sccc2C(N)=O)cc1` (stereo not drawn) the value was over 54.4 µg/mL; for `O=C(Nc1cccnc1)c1cccc(S(=O)(=O)N2CCCCC2)c1`, over 51.8 µg/mL.
With `COc1ccccc1CNC(=O)CN1C(=O)NC2(CCC(C)CC2)C1=O` (stereo not drawn) the figure was over 53.9 µg/mL; with `O=C(O)c1cccnc1C(=O)c1ccccc1`, 31.9 µg/mL (≈ 140 µM).
`CC1CCCC(C)N1C(=O)COC(=O)c1cccs1` (stereo not drawn) yielded a solubility (kinetic) of over 42.2 µg/mL.
With `CC(CN1CCOCC1)OC(=O)c1ccc(Cl)cc1Cl.Cl` (stereo not drawn) the figure was 48.9 µg/mL; with `Cc1cc(S(=O)(=O)NCc2ccc3c(c2)OCO3)ccc1F`, 46.8 µg/mL (≈ 145 µM); with `CCCCS(=O)(=O)N1CCC(C(=O)Oc2ccc(Cl)cc2)CC1`, 1.7 µg/mL (≈ 4.72 µM).
For `O=c1c(Cc2ccc(F)cc2)c(O)ccn1CCc1ccccn1` the value was over 48.7 µg/mL; for `Cn1cccc1C(=O)OCC(=O)NCCc1ccc(S(N)(=O)=O)cc1`, over 54.8 µg/mL.
`COc1ccc(-c2nc3n(c(=O)c2C#N)CCS3)cc1OC` returned a solubility (kinetic) of 11.9 µg/mL (≈ 37.7 µM).
With `O=C(Nc1ccccc1F)c1cc(Cl)sc1Cl` the figure was 5.2 µg/mL (≈ 17.9 µM).
With `c1ccc(CSc2nc3ccccc3[nH]2)cc1` the figure was 2.1 µg/mL (≈ 8.74 µM); with `CC1CCc2sc(C(=O)NCCCn3ccnc3)cc2C1` (stereo not drawn), 35 µg/mL (≈ 115 µM); with `Cc1ccc(-c2csc(NC(=O)CN3CC(C)OC(C)C3)n2)cc1` (stereo not drawn), 29.5 µg/mL (≈ 85.4 µM).
With `CC(=O)Nc1ccc(S(=O)(=O)N2CCNC(=O)C2)cc1` the figure was over 44.6 µg/mL.
`CCOC(=O)C1=C(O)C(=O)N(Cc2ccccc2)C1` had a solubility (kinetic) of over 39.2 µg/mL.
With `S=C(Nc1ccccc1)NC1CCN(Cc2ccccc2)CC1` the figure was over 48.8 µg/mL; with `O=C(Nc1ccccc1F)c1ccc2ncsc2c1`, over 40.8 µg/mL; with `CC(C)N(C(=S)Nc1cccnc1)c1ccccc1`, 32.8 µg/mL (≈ 121 µM).
Compound `Cn1c(=O)c2c(nc3n2CC(O)CN3c2ccccc2)n(C)c1=O` (stereo not drawn) gave a solubility (kinetic) of over 49.1 µg/mL.
For `CSc1ncc(Cl)c(C(=O)NCc2cccnc2)n1`, the solubility (kinetic) is over 44.2 µg/mL.
With `CC(=O)Nc1ccccc1-c1nc2cc(C#N)c(C#N)cc2[nH]c1=O` the figure was over 49.4 µg/mL; with `NS(=O)(=O)c1cnccc1Oc1cccc(Cl)c1`, over 42.7 µg/mL; with `CC(=O)N1CCN(Cc2nc3cc(Cl)ccc3c(=O)[nH]2)CC1`, over 48.1 µg/mL.
For `CN(C)CCC=C1c2ccccc2CCc2ccccc21.Cl` the value was over 47.1 µg/mL; for `CC(=O)c1cccc(NC(=O)N2CCC(NC(=O)c3ccco3)CC2)c1`, 51.6 µg/mL (≈ 145 µM).
For `CC(=O)N1CCN(CC(=O)Nc2cc(F)ccc2C)CC1` the value was over 44 µg/mL; for `Cc1ncc([N+](=O)[O-])n1Cc1ccc(Cl)cc1`, 34.7 µg/mL (≈ 138 µM); for `CC(=O)Nc1cccc(OCCCNC(=O)c2ccc(F)cc2)c1`, 38.9 µg/mL (≈ 118 µM).
For the compound `COC(=O)c1cccc(NC(=O)Nc2ccc(Cl)cc2Cl)c1`, the solubility (kinetic) is under 0.4 µg/mL.
For `Clc1ccc(Cn2cnc3ccccc32)cc1` the value was 27 µg/mL (≈ 111 µM); for `CCN1CCCC1CNc1ccc(S(C)(=O)=O)cc1[N+](=O)[O-]` (stereo not drawn), over 49.1 µg/mL; for `O=C(CCc1nnc(CCC2CCCCC2)o1)NCc1ccon1`, over 49.9 µg/mL.
With `O=C(O)C1c2ccccc2C(=O)N(Cc2ccc(F)cc2)C1c1ccncc1` (stereo not drawn), the kinetic solubility was over 56.5 µg/mL.
With `N#C/C(=C(\O)c1cc(Cl)sc1Cl)c1nc2ccccc2[nH]1` the figure was under 0.2 µg/mL.
`CCOC(=O)c1ccc(NC(=O)NCc2ccccn2)cc1` yielded a kinetic solubility of 42.2 µg/mL (≈ 141 µM).
`CCCCNC1c2ccccc2C(=O)N1Cc1ccccc1.Cl` (stereo not drawn) returned a solubility (kinetic) of 47.5 µg/mL.
Regarding `CC(C)N(C(=O)Cn1c(Cl)nc2ccccc21)C(C)C`, the solubility (kinetic) is over 44.1 µg/mL.
For `CCOc1ccccc1Nc1ccc2nonc2c1[N+](=O)[O-]` the value was under 0.2 µg/mL.
Regarding `O=C(CC(c1ccccc1)c1ccccc1)NCCOCc1ccccc1`, the solubility (kinetic) stood at 20.1 µg/mL (≈ 55.9 µM).
In turn, `CCNC(=O)[C@H]1O[C@@H](n2cnc3c(N)ncnc32)[C@H](O)[C@@H]1O` had a kinetic solubility of over 46.2 µg/mL.
For `Cc1c(Cl)cccc1Nc1ccccc1C(=O)O` the value was over 39.3 µg/mL.
In turn, `CCC(=O)NNc1nc2c(F)cccc2s1` showed a kinetic solubility of over 35.9 µg/mL.
With `CN(CC(=O)Nc1cccc(F)c1)C(=O)/C=C/c1ccc2ccccc2n1` the figure was 9.9 µg/mL (≈ 27.2 µM); with `CCC(=O)c1cn(CC(=O)Nc2cccc(OC)c2)c2ccccc12`, under 0.4 µg/mL; with `O=C1NC(=O)/C(=C/c2ccc(-c3cccc([N+](=O)[O-])c3)o2)S1`, 3.8 µg/mL (≈ 12 µM).
`Cc1ccc(S(=O)(=O)NC(=O)Nc2cc(C(C)(C)C)on2)cc1` came in with a kinetic solubility of over 50.6 µg/mL.
With `COc1ccc2c(c1OC)C(=O)N1C2SC(C)(C)[C@H]1C(=O)NC1CC1` (stereo partly drawn) the figure was over 54.4 µg/mL; with `Cn1cnnc1SCC(=O)c1ccc2c(c1)NC(=O)CO2`, over 45.6 µg/mL.
In turn, `Cc1nc(SCC(=O)Nc2ccccc2Cl)oc1C` returned a solubility (kinetic) of over 44.5 µg/mL.
Compound `CN(Cc1nc2ccccc2s1)C(=O)c1ccc(F)cc1` registered a kinetic solubility of over 45.1 µg/mL.
In turn, `CCCCOc1ccc(C(=O)Nc2ccc(CN3CCOCC3)cc2)cc1` came in with a kinetic solubility of 1.1 µg/mL (≈ 2.99 µM).
Turning to `CCCNC(=O)CN1CCC(c2nc3ccccc3[nH]2)CC1`, the kinetic solubility was found to be 34 µg/mL (≈ 113 µM). Compared with the last compound, the solubility kinetic is about 31-fold higher.
Compound `NS(=O)(=O)c1ccc(NC(=O)CCC(=O)N2CCOCC2)cc1` yielded a solubility (kinetic) of over 51.2 µg/mL.
Compound `O=C(NCc1cccc(Cl)c1)c1ccncc1` returned a solubility (kinetic) of over 37 µg/mL.
With `O=C(Nc1ccccc1Cc1ccccc1)c1ccccc1F` the figure was 3.1 µg/mL (≈ 10.2 µM).

The values above are taken from PubChem BioAssay AID1996.
